These results are taken from US5559115A, “Oncogene function-inhibitory agent, method for inhibiting oncogene function, and treatment of cancer” (Terumo Kabushiki Kaisha, priority 1993, dated 1996).

Converted amounts (≈) assume the structure as drawn. “Also recorded” adds a separate entry of the source.

Assay [1] relates to K-ras-NIH 3T3 cells. The assay can be described thus: Propagation inhibitory effect on K-ras-NIH 3T3 cells. The class given is cell-based. Conditions: Mus musculus, NIH3T3, 72 h; K-ras-NIH 3T3, 3 days; read-out: IC50, cell propagation. Here is the method: (§1) Normal rat kidney cell, NRK-49 (Dainihon Pharmaceutical K.K.) and normal mouse cell, NIH 3T3 (JCRB Cell Bank); and K-ras NIH 3T3, H-ras NIH 3T3, and N-ras NIH 3T3 (Tokyo University, Medical Science Institute, Japan) which are cell lines that have been transformed with Kirsten sarcoma virus, Harvey sarcoma virus, and neuroblastoma virus, respectively, were incubated at 37° C. in the similar manner.
(§2) Next, cells of different types were inoculated in wells of 12 wells plastic plate (Costar 3521, manufactured by Costar) at 2.0×10^4 /DMEM 1 ml/well, and the plate was incubated in an incubator of 5% CO2 for one day. III-121C was added to the thus incubated cells to different concentrations and incubation was continued for another 3 days. The number of cells was measured by repeating the above-described procedure to determine the concentration (IC50) of the III-121C required to inhibit the cell propagation to 50%.

For assay [2], the system named is K-ras^ts-NRK cells. The assay can be described thus: Effect on production of actin filaments, K-ras^ts-NRK cells. Conditions: 1 μg/ml, one day. Type of assay: cell-based, rat. Here is the method: (§3) A cover glass with a diameter of 18 mm (manufactured by Matsunami Glass Industry K.K.) that had been washed with 100% ethanol, dried, and sterilized was placed in wells of 12 wells plastic plate, and the cells were inoculated in the wells at 3.0×10^4 /DMEM 1 ml/well. The plate was incubated in an incubator of 5% CO2 for 1 day. To the thus incubated cell culture was added 1 μg/ml of III-121C, and the incubation was continued for another one day. The cell culture was then fixed with paraformaldehyde. The fixed cell culture was reacted with rhodamine pharoidine reagent (Molecular Probe Inc.) to examine the cell morphology by fluorescence microscope with G filter (excitation, 546 nm).

For assay [3], the system named is cell morphology. The assay can be described thus: Cell morphology normalizing activity (extract, fractions, purified product). The class given is cell-based. Here is the method:
The inventors of the present invention then succeeded in the isolation and characterization of the active component in the extract. The present invention has been completed on the bases of such study.
To a small amount of chloroform was dissolved 1.34 g of the extract, and the resulting solution was charged in a column having packed therein 10 g of silica gel (Merck silicagel 60, manufactured by Merck). To the column was first added 100% chloroform to elute the impurities, and then, 100:1 chloroform:methanol was added and the eluate was fractionated into portions of about 10 ml. Each fraction was examined by thin layer chromatography (silica gel; 20:1 chloroform:methanol solvent; UV 330 nm), and fractions having an Rf of 0.56 with blue color were collected.
The thus obtained active substance was dissolved in a small amount of methanol. After removing the precipitates, the solution was charged in a column of Toyopearl HW-40 that had been equilibrated with methanol to thereby carry out the gel filtration chromatography. The column was eluted with 100% methanol and 3 ml fractions were collected. The thus collected fractions were analyzed by thin layer chromatography using 20:1 chloroform:methanol for the developer. […] This substance is hereinafter referred to as III-121C.

For assay [4], the system named is H-ras-NIH 3T3 cells. The assay is described as follows: Activity to induce changes in cell morphology, H-ras-NIH 3T3 cells. The class given is cell-based, mouse. Conditions: 0.3 μg/ml, 2 days. The procedure: as §1
(§4) The effect of the III-121C on various types of cultured cells was evaluated by inoculating each type of cells in wells of 24 wells plastic plate (Costar 3524, manufactured by Costar) at 3×10^4 cells/1 ml medium/well; incubating the plate in an incubator of 5% CO2 for one day; and adding the III-121C sample to the cell cultures to observe the cell morphology for another two days.
(§5) K-ras-NIH 3T3 and H-ras-NIH 3T3 are transformed cell lines, and the cells are elongated with projections or processes on their surface, and grow atop the other. N-ras-NIH 3T3 cells are also elongated and their projections or processes are even longer.

For assay [5], the system named is N-ras-NIH 3T3 cells. The assay is described as follows: Activity to induce changes in cell morphology, N-ras-NIH 3T3 cells. The class given is cell-based, mouse. Conditions: 0.3 μg/ml, 2 days. Here is the method: as §1, §4, §5
Assay [6] relates to K-ras-NRK cells. The assay can be described thus: Effect on production of actin filaments, K-ras-NRK cells. Type of assay: cell-based, rat. Conditions: 1 μg/ml, one day. Here is the method: as §3
The subject of assay [7] is H-ras-NIH 3T3 cells. The assay can be described thus: Propagation inhibitory effect on H-ras-NIH 3T3 cells. Type of assay: cell-based. Conditions: Mus musculus, NIH3T3, 72 h; H-ras-NIH 3T3, 3 days; read-out: IC50, cell propagation. The procedure: as §1, §2
The test system of assay [8] is K-ras-NIH 3T3 cells. The assay can be described thus: Effect on production of actin filaments, K-ras-NIH 3T3 cells. Conditions: 1 μg/ml, one day. Type of assay: cell-based, mouse. Here is the method: as §3
Assay [9] relates to K-ras-NRK tumor. The assay is described as follows: Growth of K-ras-NRK tumor in nude mice. Conditions: K-ras-NRK s.c., intraperitoneal, days 0, 2, 4 (FIG. 8). Type of assay: in vivo. Here is the method:
To 4 groups of nude mice (each group comprising 6 individuals) were subcutaneously inoculated 1×10^6 cells of K-ras-NRK on their back. Formation of a small tumor was recognized after 4 days from the inoculation, and intraperitoneal administration of III-121C at different doses was started on this day (day 0). III-121C was additionally administered after two days and four days from the start of the administration to measure the volume of the tumor. No III-121C was administered to the mice of the control group. The results are depicted in FIG. 8.

Assay [10] relates to K-ras-NIH 3T3 cells. The assay can be described thus: Activity to induce changes in cell morphology, K-ras-NIH 3T3 cells. The class given is cell-based, mouse. Conditions: 0.3 μg/ml, 2 days. The procedure:
as §1, §4, §5

The subject of assay [11] is H-ras-NIH 3T3 cells. The assay can be described thus: Effect on production of actin filaments, H-ras-NIH 3T3 cells. Type of assay: cell-based, mouse. Conditions: 1 μg/ml, one day. Here is the method:
as §3

The test system of assay [12] is N-ras-NIH 3T3 cells. The assay can be described thus: Propagation inhibitory effect on N-ras-NIH 3T3 cells. The class given is cell-based. Conditions: Mus musculus, NIH3T3, 72 h; N-ras-NIH 3T3, 3 days; read-out: IC50, cell propagation. Here is the method: as §1, §2
The subject of assay [13] is NIH 3T3 cells. The assay is described as follows: Propagation inhibitory effect on NIH 3T3 cells. Type of assay: cell-based. Conditions: Mus musculus, NIH3T3, 72 h; NIH 3T3, 3 days; read-out: IC50, cell propagation. Here is the method:
as §1, §2

Assay [14] relates to RSV NRK cells. The assay can be described thus: Propagation inhibitory effect on RSV NRK cells. The class given is cell-based. Conditions: Rattus norvegicus, 72 h, 33° C., 3 days, read-out: IC50, cell propagation.
Assay [15] deals with cancer cell. The assay is described as follows: 50% inhibition of cancer cell propagation, various cell lines. Conditions: varies by type of cancer cell; approximately; Table 1; read-out: concentration (IC50) required for 50% inhibition of the cancer cell propagation. Type of assay: cell-based. Here is the method:
as §2

In assay [16] the test system is NRK cells. The assay is described as follows: Propagation inhibitory effect on NRK cells. The class given is cell-based. Conditions: Rattus norvegicus, 72 h, 3 days, read-out: IC50, cell propagation. Here is the method: as §1, §2

For the molecule `CCC12CC(C(=O)OC)=C3Nc4cc5c(cc4C34CCN(CC3OC31)C42)C1C(O5)C(O)C2(CC)CC(C(=O)OC)=C3Nc4c(cc(O)c(OC)c4OC)C34CCN1C42` (stereo not shown) [III-121C], the IC50 in assay [1] is 0.4 µg/mL (≈ 0.503 µM); in [7] it was 0.48 µg/mL (≈ 0.604 µM); in assay [12], 0.12 µg/mL (≈ 0.151 µM); in assay [13], 0.47 µg/mL (≈ 0.591 µM); in [14] it was 0.11 µg/mL (≈ 0.138 µM); in assay [15], 0.1 to 0.5 µg/mL (≈ 0.126 to 0.629 µM). Moreover, the IC50 in [16] is 0.19 µg/mL (≈ 0.239 µM). In addition, the “actin filaments / cell morphology” value in assay [2], in [6], in assay [8] and in assay [11] was “morphology of normal cells with longitudinally extending linear actin filaments” throughout. In [3], the “activity of normalizing the cell morphology” value was “confirmed to have an activity of normalizing the cell morphology”. Besides, the “change in cell morphology and growth habits” value in assay [4] was “the cells changed their morphology and growth habits to those of normal NIH 3T3 cells, and became flat with an increased area of contact”; in assay [5], “the cells changed their morphology and growth habits to those of normal NIH 3T3 cells, and became flat with an increased area of contact”; in [10], “the cells changed their morphology and growth habits to those of normal NIH 3T3 cells, and became flat with an increased area of contact”. For the same molecule, in assay [9], the tumor growth inhibition entry is reported as “the growth of the tumor was inhibited in a dose dependent manner; also recorded: growth suppression of tumors in living mammals”.
